# Measured values taken from patent publication US20040142888A1, “Modulators of RabGGT and methods of use thereof” (priority 2002, published 2004).
# Assays:
# C. elegans germline [1] = experiment: Apoptosis in the C. elegans germline (apoptotic corpses per germline arm), after compound and/or RNAi treatment; format: in vivo; settings: wild-type worms, compound 1.5 mM
# Experimental: The compounds were applied to early larval and adult C. elegans hermaphrodites by mixing a concentrated DMSO solution of the compound with heat-killed OP50 bacteria in a salt solution. The bacteria were then applied to agar plates and worms of the appropriate age seeded onto the plates. Compounds 7A, 7B, 7C, 7D, 7H, 7I and 7J were applied to worms at a final concentration of 1.5 mM. and the resulting visible phenotypes analyzed. The phenotype of apoptosis in C. elegans was quantified as follows: Germ cells in the C. elegans hermaphrodite gonad progress through various stages of differentiation to become mature ova. At the pachytene stage of meiotic prophase, some germ cells undergo programmed cell death (apoptosis) as part of normal development. The apoptotic corpses resulting from this process can be visualized by high-resolution Nomarski optics and are readily distinguishable cells to the trained eye from viable germ cells by their compact, button-like appearance. Necrotic cells, which are rarer, have a less compact appearance. Apoptosis is most reliably distinguished from necrosis, however, by its requirement for the core apoptotic machinery, such as a functional caspase/ced-3 gene. Since C. elegans has symmetrical anterior and posterior gonad structures, referred to as “arms”, apoptosis is scored by visually counting the apoptotic corpses present in a 1-2 day old adult in each germline arm. Normal, untreated worms rarely contain more than 2 corpses per arm. In a treated sample, the number of worms that contain more than 2 corpses provides a very accurate indicator of the apoptotic effect of the treatment. Early larval and adult C. elegans hermaphrodites were treated with compound and the phenotype of apoptosis in the germline arm was quantified as described in Example IV. DNA encoding GGTase alpha/[…].2 (GenBank entry NM-067966) and GGTase beta/B0280.1 (GenBank entry NM 066158) was amplified from a C. elegans genomic DNA template by PCR (Takara LA Taq DNA polymerase) using oligonucleotides containing gene-specific priming sequences that were flanked by sequences encoding the T7 polymerase priming site. The gene-specific priming sequences targeted the first 5 exons of B0280.1 (product size 2 kiloBases) and the first four exons of […].2 (product size 1 kiloBases). The PCR products were analyzed by gel electrophoresis to confirm that the correct product size was obtained. RNA was transcribed from the PCR product using the MEGAscript High Yield Transcription Kit (Ambion) according to manufacturer's instructions. Directly after transcription, the RNA was annealed by heating to 68° C. for 20 minutes. The double stranded RNA (dsRNA) was checked for product quality by gel electrophoresis. The dsRNA was then ethanol-precipitated, washed once with 100% ethanol and twice with 70% ethanol and the pellet was allowed to air dry for 30 minutes. The dsRNA was re-suspended in 1× IM buffer (20 mM KPO4, 3 mM potassium citrate, 2% PEG 6000) in volume equal to the original in vitro transcription reaction, and stored at -20° C. For RNAi treatment of worms, wild type animals at the L2/L3 stage of development were collected in M9 buffer at 50 animals/μl (M9 is 0.044 M KH2PO4, 0.085 M Na2HPO4, 0.18 M NaCl and 1 mM MgSO4). 1 μl of this nematode suspension was added to 3 μl of dsRNA and incubated for 24 hours in a sealed 96 well plate at 20° C. in a humidified chamber. Animals were allowed to develop to adulthood before compound treatment and/or assay of germline apoptosis as described in Example IV. Early larval and adult C. elegans hermaphrodites were treated with compound as described in Example IV. RNAi preparation and treatment was performed as described in Example VI. The phenotype of apoptosis in the germline arm was quantified as described in Example IV. Early larval and adult C. elegans hermaphrodites were treated with compound as described in Example IV. RNAi preparation and treatment was performed as described in Example VI. […]
# C. elegans germline [2] = experiment: as above; format: in vivo; settings: for increase in apoptotic corpses / % arms with >2 corpses / Corpses/germline arm, mean / Frequency: germline arms with 0 apoptotic corpses / Frequency: germline arms with 1 apoptotic corpse / Frequency: germline arms with 2 apoptotic corpses / Frequency: germline arms with 3 apoptotic corpses / Frequency: germline arms with 4 apoptotic corpses / Frequency: germline arms with >4 apoptotic corpses: 7B at 1.6 mM
# HCT116 colon tumor = settings: HCT116 xenograft, 600 mg/kg orally once daily for ten doses, cited from earlier work
# [3] = wild-type worms, 7B 0.3 mM and/or RNAi against RabGGT alpha subunit
structure (smiles),measurement,setting,value
COc1ccc(S(=O)(=O)N2Cc3cc(C#N)ccc3N(Cc3cnc[nH]3)C[C@H]2Cc2ccccc2)cc1 [Compound 7A],% arms with >2 corpses,C. elegans germline [1],36%
same,"Corpses/germline arm, mean",C. elegans germline [1],2.0
same,Frequency: germline arms with 0 apoptotic corpses,C. elegans germline [1],1
same,Frequency: germline arms with 1 apoptotic corpse,C. elegans germline [1],4
same,Frequency: germline arms with 2 apoptotic corpses,C. elegans germline [1],2
same,Frequency: germline arms with 3 apoptotic corpses,C. elegans germline [1],3
same,Frequency: germline arms with 4 apoptotic corpses,C. elegans germline [1],0
same,Frequency: germline arms with >4 apoptotic corpses,C. elegans germline [1],1
same,effect on mean number of apoptotic corpses in the germline,C. elegans germline [1],increasing the mean number of apoptotic corpses in the germline
N#Cc1ccc2c(c1)CN(S(=O)(=O)N1CCCCC1)[C@H](Cc1ccccc1)CN2Cc1cnc[nH]1 [Compound 7B],% arms with >2 corpses,C. elegans germline [1],92%
same,"Corpses/germline arm, mean",C. elegans germline [1],6.9
same,Frequency: germline arms with 0 apoptotic corpses,C. elegans germline [1],0
same,Frequency: germline arms with 1 apoptotic corpse,C. elegans germline [1],0
same,Frequency: germline arms with 2 apoptotic corpses,C. elegans germline [1],1
same,Frequency: germline arms with 3 apoptotic corpses,C. elegans germline [1],1
same,Frequency: germline arms with 4 apoptotic corpses,C. elegans germline [1],0
same,Frequency: germline arms with >4 apoptotic corpses,C. elegans germline [1],10
same,increase in apoptotic corpses,C. elegans germline [2]; APAF-1/ced-4 mutants,no increase in corpses was observed
same,% arms with >2 corpses,C. elegans germline [2]; WT worms,100%
same,"Corpses/germline arm, mean",C. elegans germline [2]; WT worms,6.25
same,Frequency: germline arms with 0 apoptotic corpses,C. elegans germline [2]; WT worms,0
same,Frequency: germline arms with 1 apoptotic corpse,C. elegans germline [2]; WT worms,0
same,Frequency: germline arms with 2 apoptotic corpses,C. elegans germline [2]; WT worms,0
same,Frequency: germline arms with 3 apoptotic corpses,C. elegans germline [2]; WT worms,1
same,Frequency: germline arms with 4 apoptotic corpses,C. elegans germline [2]; WT worms,0
same,Frequency: germline arms with >4 apoptotic corpses,C. elegans germline [2]; WT worms,10
same,increase in apoptotic corpses,C. elegans germline [2]; caspase/ced-3 mutants,no increase in corpses was observed
same,% arms with >2 corpses,C. elegans germline [2]; ced3 mutant worms,0%
same,"Corpses/germline arm, mean",C. elegans germline [2]; ced3 mutant worms,0.08
same,Frequency: germline arms with 0 apoptotic corpses,C. elegans germline [2]; ced3 mutant worms,12
same,Frequency: germline arms with 1 apoptotic corpse,C. elegans germline [2]; ced3 mutant worms,1
same,Frequency: germline arms with 2 apoptotic corpses,C. elegans germline [2]; ced3 mutant worms,0
same,Frequency: germline arms with 3 apoptotic corpses,C. elegans germline [2]; ced3 mutant worms,0
same,Frequency: germline arms with 4 apoptotic corpses,C. elegans germline [2]; ced3 mutant worms,0
same,Frequency: germline arms with >4 apoptotic corpses,C. elegans germline [2]; ced3 mutant worms,0
same,% arms with >2 corpses,C. elegans germline [2]; ced4 mutant worms,0%
same,"Corpses/germline arm, mean",C. elegans germline [2]; ced4 mutant worms,0.15
same,Frequency: germline arms with 0 apoptotic corpses,C. elegans germline [2]; ced4 mutant worms,11
same,Frequency: germline arms with 1 apoptotic corpse,C. elegans germline [2]; ced4 mutant worms,2
same,Frequency: germline arms with 2 apoptotic corpses,C. elegans germline [2]; ced4 mutant worms,0
same,Frequency: germline arms with 3 apoptotic corpses,C. elegans germline [2]; ced4 mutant worms,0
same,Frequency: germline arms with 4 apoptotic corpses,C. elegans germline [2]; ced4 mutant worms,0
same,Frequency: germline arms with >4 apoptotic corpses,C. elegans germline [2]; ced4 mutant worms,0
same,observed number of apoptotic corpses per germline arm,"C. elegans germline [2]; wild-type adult worms, compound at 0.8 mM or higher",5-7
same,% arms with 0-2 corpses,C. elegans germline [2]; [3],50%
same,% arms with 3-4 corpses,C. elegans germline [2]; [3],33%
same,% arms with >4 corpses,C. elegans germline [2]; [3],17%
same,"Corpses/arm, mean",C. elegans germline [2]; [3],2.3
same,Frequency: arms with 0 apoptotic corpses,C. elegans germline [2]; [3],5
same,Frequency: arms with 1 apoptotic corpse,C. elegans germline [2]; [3],5
same,Frequency: arms with 2 apoptotic corpses,C. elegans germline [2]; [3],2
same,Frequency: arms with 3 apoptotic corpses,C. elegans germline [2]; [3],5
same,Frequency: arms with 4 apoptotic corpses,C. elegans germline [2]; [3],3
same,Frequency: arms with >4 apoptotic corpses,C. elegans germline [2]; [3],4
CCCS(=O)(=O)N1Cc2cc(C#N)ccc2N(Cc2cnc[nH]2)C[C@H]1Cc1ccccc1 [Compound 7H],% arms with >2 corpses,C. elegans germline [1],29%
same,"Corpses/germline arm, mean",C. elegans germline [1],1.6
same,Frequency: germline arms with 0 apoptotic corpses,C. elegans germline [1],5
same,Frequency: germline arms with 1 apoptotic corpse,C. elegans germline [1],4
same,Frequency: germline arms with 3 apoptotic corpses,C. elegans germline [1],3
same,Frequency: germline arms with 4 apoptotic corpses,C. elegans germline [1],2
same,Frequency: germline arms with >4 apoptotic corpses,C. elegans germline [1],0
same,effect on mean number of apoptotic corpses in the germline,C. elegans germline [1],increasing the mean number of apoptotic corpses in the germline
same,death attributed to drug related toxicity (among eight mice treated),HCT116 colon tumor,one
same,mice that experienced cure of the tumor (among eight mice treated),HCT116 colon tumor; cure = no mass larger than 35 mg,seven
COc1ccc(S(=O)(=O)N2Cc3cc(C#N)ccc3N(Cc3cncn3C)C[C@H]2Cc2ccccc2)cc1 [Compound 7I],% arms with >2 corpses,C. elegans germline [1],33%
same,"Corpses/germline arm, mean",C. elegans germline [1],2.3
same,Frequency: germline arms with 0 apoptotic corpses,C. elegans germline [1],1
same,Frequency: germline arms with 1 apoptotic corpse,C. elegans germline [1],3
same,Frequency: germline arms with 2 apoptotic corpses,C. elegans germline [1],3
same,Frequency: germline arms with 3 apoptotic corpses,C. elegans germline [1],1
same,Frequency: germline arms with 4 apoptotic corpses,C. elegans germline [1],2
same,Frequency: germline arms with >4 apoptotic corpses,C. elegans germline [1],1
same,effect on mean number of apoptotic corpses in the germline,C. elegans germline [1],increasing the mean number of apoptotic corpses in the germline
Cn1cncc1CN1C[C@@H](Cc2ccccc2)N(S(=O)(=O)c2cccs2)Cc2cc(C#N)ccc21 [Compound 7J],% arms with >2 corpses,C. elegans germline [1],59%
same,"Corpses/germline arm, mean",C. elegans germline [1],2.8
same,Frequency: germline arms with 0 apoptotic corpses,C. elegans germline [1],3
same,Frequency: germline arms with 1 apoptotic corpse,C. elegans germline [1],4
same,Frequency: germline arms with 2 apoptotic corpses,C. elegans germline [1],1
same,Frequency: germline arms with 3 apoptotic corpses,C. elegans germline [1],4
same,Frequency: germline arms with 4 apoptotic corpses,C. elegans germline [1],4
same,Frequency: germline arms with >4 apoptotic corpses,C. elegans germline [1],3
same,effect on mean number of apoptotic corpses in the germline,C. elegans germline [1],increasing the mean number of apoptotic corpses in the germline
